Where two headings read alike, the source gives them in different places. Where a SMILES comes first, the peptide text is derived from it. Bridges are numbered along the chain shown (N, C = ends). [ ]: non-standard residue; d: D form. The star is where a group is joined. hPhe(3-Cl-4-CF3) = N[C@@H](CCc1ccc(C(F)(F)F)c(Cl)c1)C(=O)O; NPrPhe(4-CF3) = CCCN[C@@H](Cc1ccc(C(F)(F)F)cc1)C(=O)O; NMeGly(cPent) = CN[C@H](C(=O)O)C1CCCC1; Pro(4,4-Me2) = CC1(C)CN[C@H](C(=O)O)C1; NMeD = CN[C@@H](CC(=O)O)C(=O)O; NMeL = CN[C@@H](CC(C)C)C(=O)O; N(Me)CH2CH2OMe = COCCN(C)*; Morpholide = C1CN(*)CCO1; Ac5c = NC1(C(=O)O)CCCC1; Aib = CC(C)(N)C(=O)O; Sar = CNCC(=O)O
Legend:
[1] = molecular target: GDP-bound KRAS wild-type protein (Homo sapiens, UniProt P01116); assay: Binding to KRAS by surface plasmon resonance (SPR), Single Cycle Kinetics; conditions: GDP-bound KRAS wild-type protein, read-out: KRAS KD
Chain of GDP-bound KRAS wild-type protein (P01116 whole entry): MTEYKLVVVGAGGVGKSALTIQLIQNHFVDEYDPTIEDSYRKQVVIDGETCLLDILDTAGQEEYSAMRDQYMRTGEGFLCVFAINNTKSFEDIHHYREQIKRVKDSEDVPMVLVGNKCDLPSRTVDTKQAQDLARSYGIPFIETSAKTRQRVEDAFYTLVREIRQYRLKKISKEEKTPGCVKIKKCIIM

[2] = molecular target: GDP-bound NRAS wild-type protein (Homo sapiens, UniProt P01111); assay: Binding to NRAS by surface plasmon resonance (SPR), Single Cycle Kinetics; conditions: for NRAS/KRAS (ratio of KD value for NRAS to KD value for KRAS) / NRAS/KRAS (ratio of KD value with respect to NRAS to KD value with respect to KRAS): SPR, GDP-bound NRAS wild-type protein vs GDP-bound KRAS wild-type protein; for NRAS/KRAS (ratio of KD value with respect to GDP-bound NRAS wild-type protein to KD value with respect to KRAS): SPR KD ratio NRAS/KRAS, class symbols
Chain of GDP-bound NRAS wild-type protein (P01111 whole entry): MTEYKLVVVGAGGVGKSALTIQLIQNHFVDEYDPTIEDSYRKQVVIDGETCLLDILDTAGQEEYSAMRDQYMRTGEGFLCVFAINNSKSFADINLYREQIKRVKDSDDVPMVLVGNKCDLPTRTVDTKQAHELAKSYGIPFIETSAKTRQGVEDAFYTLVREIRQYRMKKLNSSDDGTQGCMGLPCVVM

[3] = molecular target: GDP-bound HRAS wild-type protein (Homo sapiens, UniProt P01112); assay: Binding to HRAS by surface plasmon resonance (SPR), Single Cycle Kinetics; conditions: for HRAS/KRAS (ratio of KD value for HRAS to KD value for KRAS) / HRAS/KRAS (ratio of KD value with respect to HRAS to KD value with respect to KRAS): SPR, GDP-bound HRAS wild-type protein vs GDP-bound KRAS wild-type protein; for HRAS/KRAS (ratio of KD value with respect to GDP-bound HRAS wild-type protein to KD value with respect to KRAS): SPR KD ratio HRAS/KRAS, class symbols
Chain of GDP-bound HRAS wild-type protein (P01112 whole entry): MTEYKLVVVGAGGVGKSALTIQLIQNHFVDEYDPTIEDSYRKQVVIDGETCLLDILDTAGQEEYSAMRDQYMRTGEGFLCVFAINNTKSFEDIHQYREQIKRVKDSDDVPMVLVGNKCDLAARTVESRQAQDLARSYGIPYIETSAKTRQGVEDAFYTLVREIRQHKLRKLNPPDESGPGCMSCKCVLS

[4] = SPR Single Cycle Kinetics, 1:1 binding model

Kd [1, 4] [pM]	Compound	NRAS/KRAS (ratio of KD value for NRAS to KD value for KRAS) [2]	HRAS/KRAS (ratio of KD value for HRAS to KD value for KRAS) [3]	other results
–	CCO[C@@H]1C[C@H]2C(=O)NC3(CCCC3)C(=O)N(C)[C@@H](C3CCCC3)C(=O)N(C)[C@H](C(=O)N(C)C)CC(=O)N(C)[C@@H](CC)C(=O)N[C@@H]([C@@H](C)CC)C(=O)N(C)CC(=O)N(C)[C@H]3CC(C)=CCN(C3=O)[C@@H](Cc3ccc(C(F)(F)F)cc3)C(=O)N(C)CC(=O)N[C@@H](CCc3cc(F)c(C(F)(F)F)c(F)c3)C(=O)N2C1 [PP1036]	C (A compound having a KD ratio of 0.1 or more and less than 3 is denoted as C)	C (A compound having a KD ratio of 0.1 or more and less than 3 is denoted as C)	Kd ([1]; SPR, Single Cycle Kinetics): 750 pM
1100	CC[C@H](C)[C@@H]1NC(=O)[C@H](CC(C)C)N(C)C(=O)C[C@@H](C(=O)N2CCOCC2)N(C)C(=O)[C@H](C2CCCC2)N(C)C(=O)C2(CCCC2)NC(=O)[C@@H]2CC(F)(F)CN2C(=O)[C@H](CCc2cc(F)c(C(F)(F)F)c(F)c2)NC(=O)CN(C)C(=O)[C@H](Cc2ccc(C(F)(F)F)cc2)N2CCCCC[C@@H](C2=O)N(C)C(=O)CN(C)C1=O [PP0491]	–	–	NRAS/KRAS (ratio of KD value with respect to NRAS to KD value with respect to KRAS) [2]: B (a compound having 3 or more and less than 10 is denoted as B); HRAS/KRAS (ratio of KD value with respect to HRAS to KD value with respect to KRAS) [3]: B (a compound having 3 or more and less than 10 is denoted as B)
390	CCCN1C(=O)CN(C)C(=O)CN(C)C(=O)[C@H]([C@@H](C)CC)NC(=O)[C@H](CC(C)C)N(C)C(=O)C[C@@H](C(=O)N2CCOCC2)N(C)C(=O)[C@H](C2CCCC2)N(C)C(=O)C(C)(C)NC(=O)[C@@H]2CCCN2C(=O)[C@H](CCc2ccc(C(F)(F)F)c(Cl)c2)NC(=O)CN(C)C(=O)[C@@H]1Cc1ccc(C(F)(F)F)cc1 [PP0230] ([NMeL]I[Sar][Sar][NPrPhe(4-CF3)][Sar][hPhe(3-Cl-4-CF3)]P[Aib][NMeGly(cPent)][NMeD]-Morpholide; lactam N-11)	B (a compound having 3 or more and less than 10 is denoted as B)	C (A compound having a KD ratio of 0.1 or more and less than 3 is denoted as C)	–
150	CCCN1C(=O)CN(C)C(=O)CNC(=O)[C@H]([C@@H](C)CC)NC(=O)[C@H](CC(C)C)N(C)C(=O)C[C@@H](C(=O)N2CCOCC2)N(C)C(=O)[C@H](C2CCCC2)N(C)C(=O)C2(CCCC2)NC(=O)[C@@H]2CC(C)(C)CN2C(=O)[C@H](CCc2ccc(C(F)(F)F)c(Cl)c2)NC(=O)CN(C)C(=O)[C@@H]1Cc1ccc(C(F)(F)F)cc1 [PP0448] ([NMeL]IG[Sar][NPrPhe(4-CF3)][Sar][hPhe(3-Cl-4-CF3)][Pro(4,4-Me2)][Ac5c][NMeGly(cPent)][NMeD]-Morpholide; lactam N-11)	–	–	NRAS/KRAS (ratio of KD value with respect to NRAS to KD value with respect to KRAS) [2]: B (a compound having 3 or more and less than 10 is denoted as B); HRAS/KRAS (ratio of KD value with respect to HRAS to KD value with respect to KRAS) [3]: C (A compound having a KD ratio of 0.1 or more and less than 3 is denoted as C)
2200	CCC[C@H]1C(=O)N[C@@H]([C@@H](C)CC)C(=O)N(C2CC2)CC(=O)N(C)[C@H]2C/C=C\CCN(C2=O)[C@@H](Cc2ccc(C(F)(F)F)cc2)C(=O)N(C)CC(=O)N[C@@H](CCc2ccc(Cl)c(Cl)c2)C(=O)N2C[C@H](OCC)C[C@H]2C(=O)NC2(CC(C)(C)C2)C(=O)N(C)[C@@H](CC2CCC2)C(=O)N(C)[C@H](C(=O)N(C)C)CC(=O)N1C [PP2819]	–	–	NRAS/KRAS (ratio of KD value with respect to GDP-bound NRAS wild-type protein to KD value with respect to KRAS) [2]: A (a compound having 10 or more and less than 20 is denoted as A); HRAS/KRAS (ratio of KD value with respect to GDP-bound HRAS wild-type protein to KD value with respect to KRAS) [3]: A (a compound having 10 or more and less than 20 is denoted as A)
–	CCO[C@@H]1C[C@H]2C(=O)NC3(CCC3)C(=O)N(C)[C@@H](C3CCCC3)C(=O)N(C)[C@H](C(C)C)CC(=O)N(C)[C@@H](CC)C(=O)N[C@@H]([C@@H](C)CC)C(=O)N(C)CC(=O)N(C)[C@H]3C/C=C\CCN(C3=O)[C@@H](CC3CCCCC3)C(=O)N(C)CC(=O)N[C@@H](CCc3cc(F)c(C(F)(F)F)c(F)c3)C(=O)N2C1 [PP1601]	–	–	Kd ([1]; SPR, Single Cycle Kinetics, 1:1 binding model): 2100 pM; NRAS/KRAS (ratio of KD value for NRAS to KD value for KRAS) ([2]; KD ratio class): B (a compound having 3 or more and less than 10 is denoted as B); HRAS/KRAS (ratio of KD value for HRAS to KD value for KRAS) ([3]; KD ratio class): A (a compound having 10 or more and less than 20 is denoted as A)
–	CCO[C@@H]1C[C@H]2C(=O)NC3(CC(C)(C)C3)C(=O)N(C)[C@@H](C(CC)CC)C(=O)N(C)[C@H](C(=O)N(C)C)CC(=O)N(C)[C@@H](CC3CCC3)C(=O)N[C@@H]([C@@H](C)CC)C(=O)N(C)CC(=O)N(C)[C@H]3C/C=C\CCN(C3=O)[C@@H](Cc3ccc(C(F)(F)F)cc3)C(=O)N(C)CC(=O)N[C@@H](CCc3cc(F)c(C(F)(F)F)c(F)c3)C(=O)N2C1 [PP2133]	AA (a compound having 20 or more is denoted as AA)	A (a compound having 10 or more and less than 20 is denoted as A)	Kd ([1]; SPR, Single Cycle Kinetics): 190 pM
4800	CCC[C@H]1C(=O)N[C@@H]([C@@H](C)CC)C(=O)N(C)CC(=O)N(C)[C@H]2C/C=C\CCN(C2=O)[C@@H](Cc2ccc(C)cc2)C(=O)N(C)CC(=O)N[C@@H](CCc2cc(Cl)c3c(ccn3C)c2)C(=O)N2C[C@H](OCC)C[C@H]2C(=O)NC2(CC(C)(C)C2)C(=O)N(C)[C@@H](C(CC)CC)C(=O)N(C)[C@H](C(=O)N(C)C)CC(=O)N1C [PP2898]	–	–	NRAS/KRAS (ratio of KD value with respect to GDP-bound NRAS wild-type protein to KD value with respect to KRAS) [2]: A (a compound having 10 or more and less than 20 is denoted as A); HRAS/KRAS (ratio of KD value with respect to GDP-bound HRAS wild-type protein to KD value with respect to KRAS) [3]: A (a compound having 10 or more and less than 20 is denoted as A)
92	CCCN1C(=O)CN(C)C(=O)CN(C)C(=O)[C@H]([C@@H](C)CC)NC(=O)[C@H](CC(C)C)N(C)C(=O)C[C@@H](C(=O)N(C)CCOC)N(C)C(=O)[C@H](C2CCCC2)N(C)C(=O)C2(CCCC2)NC(=O)[C@@H]2CCCN2C(=O)[C@H](CCc2ccc(C(F)(F)F)c(Cl)c2)NC(=O)CN(C)C(=O)[C@@H]1Cc1ccc(C(F)(F)F)cc1 [PP0391] ([NMeL]I[Sar][Sar][NPrPhe(4-CF3)][Sar][hPhe(3-Cl-4-CF3)]P[Ac5c][NMeGly(cPent)][NMeD]-{N(Me)CH2CH2OMe}; lactam N-11)	B (a compound having 3 or more and less than 10 is denoted as B)	B (a compound having 3 or more and less than 10 is denoted as B)	–
–	CCO[C@@H]1C[C@H]2C(=O)NC3(CC(C)(C)C3)C(=O)N(C)[C@@H](C(CC)CC)C(=O)N(C)[C@H](C(=O)N(C)C)CC(=O)N(C)[C@@H](COC)C(=O)N[C@@H]([C@@H](C)CC)C(=O)N(C)CC(=O)N(C)[C@H]3C/C=C\CCN(C3=O)[C@@H](Cc3ccc(C(F)(F)F)cc3)C(=O)N(C)CC(=O)N[C@@H](CCc3cc(F)c(C(F)(F)F)c(F)c3)C(=O)N2C1 [PP2121]	AA (a compound having 20 or more is denoted as AA)	A (a compound having 10 or more and less than 20 is denoted as A)	Kd ([1]; SPR, Single Cycle Kinetics): 1500 pM
2000	CCC[C@H]1C(=O)N[C@@H]([C@@H](C)CC)C(=O)N(C)CC(=O)N(C)[C@H]2C/C=C\CCN(C2=O)[C@@H](Cc2ccc(C(F)(F)F)cc2)C(=O)N(C)CC(=O)N[C@@H](CCc2ccc3c(C)c(C)n(C)c3c2)C(=O)N2C[C@H](OCC)C[C@H]2C(=O)NC2(CC(C)(C)C2)C(=O)N(C)[C@@H](C2CCCC2)C(=O)N(C)[C@H](C(=O)N(C)C)CC(=O)N1C [PP2893]	–	–	NRAS/KRAS (ratio of KD value with respect to GDP-bound NRAS wild-type protein to KD value with respect to KRAS) [2]: A (a compound having 10 or more and less than 20 is denoted as A); HRAS/KRAS (ratio of KD value with respect to GDP-bound HRAS wild-type protein to KD value with respect to KRAS) [3]: A (a compound having 10 or more and less than 20 is denoted as A)
290	CC[C@H](C)[C@@H]1NC(=O)[C@H](CC(C)C)N(C)C(=O)C[C@@H](C(=O)N2CCOCC2)N(C)C(=O)[C@H](C2CCC2)N(C)C(=O)C2(CCCC2)NC(=O)[C@@H]2CCCN2C(=O)[C@H](CCc2cc(F)c(C(F)(F)F)c(F)c2)NC(=O)CN(C)C(=O)[C@H](Cc2ccc(C(F)(F)F)cc2)N2CCCC[C@@H](C2=O)N(C)C(=O)CN(C)C1=O [PP0566]	–	–	NRAS/KRAS (ratio of KD value with respect to NRAS to KD value with respect to KRAS) [2]: B (a compound having 3 or more and less than 10 is denoted as B); HRAS/KRAS (ratio of KD value with respect to HRAS to KD value with respect to KRAS) [3]: B (a compound having 3 or more and less than 10 is denoted as B)
–	CCO[C@@H]1C[C@H]2C(=O)NC3(CCCC3)C(=O)N(C)[C@@H](C3CCCC3)C(=O)N(C)[C@H](C(=O)N3CCOCC3)CC(=O)N(C)[C@@H](CC)C(=O)N[C@@H]([C@@H](C)CC)C(=O)N(C)CC(=O)N(C)[C@H]3CC(C)=CCN(C3=O)[C@@H](Cc3ccc(C(F)(F)F)cc3)C(=O)N(C)CC(=O)N[C@@H](CCc3cc(F)c(C(F)(F)F)c(F)c3)C(=O)N2C1 [PP1043]	C (A compound having a KD ratio of 0.1 or more and less than 3 is denoted as C)	C (A compound having a KD ratio of 0.1 or more and less than 3 is denoted as C)	Kd ([1]; SPR, Single Cycle Kinetics): 2400 pM
200	CC[C@H](C)[C@@H]1NC(=O)[C@H](CC(C)C)N(C)C(=O)C[C@@H](C(=O)N(C)C)N(C)C(=O)[C@H](C2CCCC2)N(C)C(=O)C2(CCC2)NC(=O)[C@@H]2CC(F)(F)CN2C(=O)[C@H](CCc2cc(F)c(C(F)(F)F)c(F)c2)NC(=O)CN(C)C(=O)[C@H](Cc2ccc(C(F)(F)F)cc2)N2CCCCC[C@@H](C2=O)N(C)C(=O)CN(C)C1=O [PP0466]	–	–	NRAS/KRAS (ratio of KD value with respect to NRAS to KD value with respect to KRAS) [2]: B (a compound having 3 or more and less than 10 is denoted as B); HRAS/KRAS (ratio of KD value with respect to HRAS to KD value with respect to KRAS) [3]: B (a compound having 3 or more and less than 10 is denoted as B)
